# Laboratory results published in patent US12116698B1, “Protein surface recognition via chemically enhanced phage display” (The Trustees of Boston College, priority 2019, dated 2024).
# Entries after “also recorded” stand apart in the source; their conditions may differ. Where a SMILES comes first, the peptide text is derived from it. Where no end group is shown, it is not given here. [ ]: non-standard residue; d: D form. The star is where a group is joined. APBA = (2-acetyl-5-(3-(2-iodoacetamido)propoxy)phenyl)boronic acid, Cys modified with it (Cm in name), CC(=O)c1ccc(OCCCNC(=O)C*)cc1B(O)O; X1 = CC(=O)c1ccc(OCCCNC(=O)C*)cc1B(O)O; Dap = NC[C@H](N)C(=O)O; Cam = NC(=O)C*
# Legend:
# streptavidin = streptavidin (Streptomyces avidinii, UniProt P22629); assay type: binding; settings: for fluorescence brightness of streptavidin beads on addition of BSA: BSA 1 mg/mL; for fluorescence staining of streptavidin beads after surface lysine acetylation: beads treated with Ac-NHS, 3 mM; for fluorescence staining of streptavidin-coated beads: excess biotin present; for effect of biotin on fluorescence staining of streptavidin-coated beads: with and without biotin; for staining of streptavidin-coated beads by SrtA screen peptides: even at 25 μm; for staining of streptavidin beads without SrtA coating: streptavidin beads alone, no SrtA
# Chain of streptavidin (P22629 37-163 limits assumed): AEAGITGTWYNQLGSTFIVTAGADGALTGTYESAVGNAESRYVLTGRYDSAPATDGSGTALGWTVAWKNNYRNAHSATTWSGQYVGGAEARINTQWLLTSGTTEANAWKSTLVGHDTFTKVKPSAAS
# sortase A (SrtA) [1] = target: T1, sortase A (SrtA) (Staphylococcus aureus, UniProt Q2FV99); assay type: binding, S. aureus; settings: for staining of SrtA-coated beads in the presence of BSA: 10 mg/mL BSA; for fluorescence staining of SrtA-coated beads: peptide at 25 μM
# T1 sequence (Q2FV99 whole entry): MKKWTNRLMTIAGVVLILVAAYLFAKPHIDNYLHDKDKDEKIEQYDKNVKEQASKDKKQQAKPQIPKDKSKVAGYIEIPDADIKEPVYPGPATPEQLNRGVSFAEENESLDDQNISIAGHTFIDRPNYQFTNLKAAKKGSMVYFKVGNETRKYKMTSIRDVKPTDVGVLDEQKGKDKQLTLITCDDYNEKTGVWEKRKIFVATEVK
# sortase A (SrtA) [2] = target: T1, sortase A (SrtA); settings: competition with DMMA
# Source text: To probe the peptides' binding site on SrtA, a competition experiment was designed using a known small molecule inhibitor of SrtA, DMMA (FIG. 8E).
Compound,fluorescence brightness of streptavidin beads on addition of BSA (streptavidin),fluorescence staining of streptavidin beads after surface lysine acetylation (streptavidin),fluorescence staining of streptavidin-coated beads (streptavidin),effect of biotin on fluorescence staining of streptavidin-coated beads (streptavidin),staining of SrtA-coated beads in the presence of BSA (sortase A (SrtA) [1]),fluorescence staining of SrtA-coated beads (sortase A (SrtA) [1]),effect of DMMA addition on SrtA binding (sortase A (SrtA) [2]),staining of streptavidin-coated beads by SrtA screen peptides (streptavidin),staining of streptavidin beads without SrtA coating (streptavidin)
"CC(=O)c1ccc(OCCCNC(=O)CSC[C@H](NC(=O)[C@H](C)N)C(=O)N[C@H](C(=O)N2CCC[C@H]2C(=O)N[C@@H](CCCNC(=N)N)C(=O)N[C@@H](CO)C(=O)N[C@@H](C)C(=O)N[C@@H](CC(N)=O)C(=O)N[C@@H](Cc2ccc(O)cc2)C(=O)N[C@@H](CSCC(=O)NCCCOc2ccc(C(C)=O)c(B(O)O)c2)C(=O)NCC(=O)NCC(=O)NCC(=O)N[C@@H](CN)C(N)=O)[C@@H](C)O)cc1B(O)O [SA1, ACmTPRSANYCmGGGDap] (H-AC(X1)TPRSANYC(X1)GGG[Dap]-NH2; N-terminus and C-terminus assumed)",minimally affected,completely abolished the fluorescence staining,fluorescence staining of the beads at low micromolar concentrations,marginal differences in fluorescence intensity with and without biotin,,,,,
"CC(=O)c1ccc(OCCCNC(=O)CSC[C@H](NC(=O)[C@H](C)N)C(=O)N[C@@H](CC(=O)O)C(=O)NCC(=O)N[C@@H](CCCNC(=N)N)C(=O)N2CCC[C@H]2C(=O)N[C@@H](CC(=O)O)C(=O)N[C@@H](CCCNC(=N)N)C(=O)N[C@@H](C)C(=O)N[C@@H](CSCC(=O)NCCCOc2ccc(C(C)=O)c(B(O)O)c2)C(=O)NCC(=O)NCC(=O)NCC(=O)N[C@@H](CN)C(N)=O)cc1B(O)O [SA2, ACmDGRPDRACmGGGDap] (H-AC(X1)DGRPDRAC(X1)GGG[Dap]-NH2; N-terminus and C-terminus assumed)",minimally affected,greatly reduced the fluorescence staining,fluorescence staining of the beads at low micromolar concentrations,marginal differences in fluorescence intensity with and without biotin,,,,,
"CC(=O)c1ccc(OCCCNC(=O)CSC[C@H](NC(=O)[C@H](C)N)C(=O)N[C@@H](Cc2c[nH]cn2)C(=O)N2CCC[C@H]2C(=O)N[C@H](C(=O)N[C@@H](CO)C(=O)NCC(=O)N[C@@H](CCC(N)=O)C(=O)N[C@@H](CCCCN)C(=O)N[C@@H](CSCC(=O)NCCCOc2ccc(C(C)=O)c(B(O)O)c2)C(=O)NCC(=O)NCC(=O)NCC(=O)N[C@@H](CN)C(N)=O)C(C)C)cc1B(O)O [W1, ACmHPVSGQKCmGGGDap] (H-AC(X1)HPVSGQKC(X1)GGG[Dap]-NH2)",,,,,greater inhibition was observed,strong fluorescence staining of the SrtA-coated beads,no inhibition of the SrtA binding,fail to stain streptavidin-coated beads,little binding to the agarose beads
"CC(=O)c1ccc(OCCCNC(=O)CSC[C@H](NC(=O)[C@H](C)N)C(=O)N[C@@H](CC(C)C)C(=O)N[C@@H](CC(N)=O)C(=O)N[C@@H](CO)C(=O)N[C@@H](CO)C(=O)N[C@@H](CCC(N)=O)C(=O)N2CCC[C@H]2C(=O)N[C@@H](CO)C(=O)N[C@@H](CSCC(=O)NCCCOc2ccc(C(C)=O)c(B(O)O)c2)C(=O)NCC(=O)NCC(=O)NCC(=O)N[C@@H](CN)C(N)=O)cc1B(O)O [W2, ACmLNSSQPSCmGGGDap] (H-AC(X1)LNSSQPSC(X1)GGG[Dap]-NH2; N-terminus and C-terminus assumed)",,,,,effective binding; also recorded: stain the SrtA coated beads,strong fluorescence staining of the SrtA-coated beads,binds the SrtA surface instead of the catalytic site; also recorded: no inhibition of the SrtA binding,fail to stain streptavidin-coated beads,little binding to the agarose beads
"ACmIQKNTTTCmGGGDap (AC(APBA)IQKNTTTC(APBA)GGG[Dap]; not fully specified (residue 14); also: APBA dimer modification, fluorescent label on Dap14) [W3]",,,,,,weak fluorescence staining of SrtA-coated beads; also recorded: much lower fluorescence staining of the beads,,fail to stain streptavidin-coated beads,no fluorescence staining of the streptavidin beads alone
"ACmTPNKTPKCmGGGDap (AC(APBA)TPNKTPKC(APBA)GGG[Dap]; not fully specified (residue 14); also: APBA dimer modification, fluorescent label on Dap14) [W4]",,,,,,weak fluorescence staining of SrtA-coated beads; also recorded: much lower fluorescence staining of the beads,,fail to stain streptavidin-coated beads,no fluorescence staining of the streptavidin beads alone
"AcmDGRPDRACmGGGDap (AC(Cam)DGRPDRAC(APBA)GGG[Dap]; not fully specified (residue 14); also: fluorescent label on Dap, identity not given here) [SA2-IA, reference compound]",,,failed to stain the streptavidin beads,,,,,,
"AcmTPRSANYCmGGGDap (AC(Cam)TPRSANYC(APBA)GGG[Dap]; not fully specified (residue 14); also: fluorescent label on Dap, identity not given here) [SA1-IA, reference compound]",,,failed to stain the streptavidin beads,,,,,,
